Experimental data taken from ChEMBL document CHEMBL1759966, “Design and optimisation of orally active TLR7 agonists for the treatment of hepatitis C virus infection” (Bioorg Med Chem Lett, 2011).

Key:
[1] = Lipophilicity, log D of the compound; format: physicochemical; details: octanol/water
[2] = Half life in rat cytosol; format: ADME

Row | logD [1] | half-life [2] [h] | Structure (SMILES)
1 | 2.1 | > 16.7 | Cc1cc(Cn2c(=O)[nH]c3c(N)nc(C(F)(F)F)cc32)no1
2 | 1.8 |  | Cc1cnc(Cn2c(=O)[nH]c3c(N)nc(C(F)(F)F)cc32)cn1
3 | 1.7 | > 16.7 | Cc1nc(Cn2c(=O)[nH]c3c(N)nc(C(F)(F)F)cc32)co1
4 | 1.9 |  | COCCCn1c(=O)[nH]c2c(N)nc(C(F)(F)F)cc21
5 | 2.2 | 1.38 | Cc1ccc(Cn2c(=O)[nH]c3c(N)nc(C(F)(F)F)cc32)nc1
6 | 3.3 |  | Nc1nc(C(F)(F)F)cc2c1[nH]c(=O)n2Cc1ccccc1
7 | 1.6 |  | Cc1ncc(Cn2c(=O)[nH]c3c(N)nc(C(F)(F)F)cc32)cn1
8 | 2.3 | > 16.7 | Cc1nc(Cn2c(=O)[nH]c3c(N)nc(C(F)(F)F)cc32)cs1
9 | 2 |  | Nc1nc(C(F)(F)F)cc2c1[nH]c(=O)n2CC1CCCOC1 (centres undefined)

Row | Structure (SMILES) | logD [1] | half-life [2] [h]
10 | Cc1ccc(Cn2c(=O)[nH]c3c(N)nc(OCC4CCN(C)CC4)cc32)cn1 | 0.2 | 
11 | COCCCOc1cc2c([nH]c(=O)n2Cc2ccc(C)nc2)c(N)n1 | 1.8 | 
12 | Cc1ccc(Cn2c(=O)[nH]c3c(N)nc(-c4nc(C)co4)cc32)cn1 | 2.1 | > 16.7
13 | Cc1ccc(Cn2c(=O)[nH]c3c(N)nc(-n4nccn4)cc32)cn1 | 1.6 | 
14 | Cc1ccc(Cn2c(=O)[nH]c3c(N)nc(OCC4CCOC4)cc32)cn1 (centres undefined) | 1.8 | 
